Molecular target: Aβ plaques (Homo sapiens, UniProt P05067)
Test: Histochemical staining of mouse brain hippocampus sections
Set-up: species or system mice
Conditions: 10 months old
Description: Aβ imaging ligands and disease-modifying therapeutics have been investigated using APP^+/−/PS1^+/− transgenic mice models. Further, we assessed the ability of 5 to stain ex vivo brain sections (50 μm) of age-matched APP^+/−/PS1^+/− mice and their WT (BL/6) counterparts, using established procedures. As a positive control, anti-Aβ monoclonal antibody (mHJ3.4 conjugated to Alexa Fluor 568) was used[34]. […] By comparison, 5 indicated no staining in 10 months old WT mice (SI, Fig. 3) thus indicating its target specificity.
Scientific Reports Version of August 4, 2016
µm) were cut in the coronal plane on a freezing sliding microtome and stored at -20°C. 7,8 Tissue was stained as free-floating sections. Prior to staining, tissue sections were permeabilized with PBS-Tritron-X-100 (0.25%) for 30 minutes, and then blocked with 1% non-fat dry milk in PBS-Ttiton-X-100 for 60 minutes.
Hippocampus tissue sections of APP+/-/PS1+/- and age-matched control BL/6 (WT, SI Figure 3) were incubated with fluorescent molecule 5 (100 nM dissolved in 1% ethanol in PBS) for 60 minutes, and washed 3-times with PBS-Triton-X-100.9 Thereafter, tissue sections were incubated with mouse-anti-Aβ (mHJ3.4) 7 that was directly conjugated to Alexa 568 for 90 minutes and washed 3-times with PBS-Triton-X-100. […]

Sequence of Aβ plaques (P05067 672-711 limits assumed): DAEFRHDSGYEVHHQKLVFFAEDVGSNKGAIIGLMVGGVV

CN(C)c1ncc(/C=C\c2nc3cc(OCCF)ccc3[se]2)cn1 [compound 5, (Z)-5-(2-(5-(2-fluoroethoxy)benzo[d][1,3]selenazol-2-yl)vinyl)-N,N-dimethylpyrimidin-2-amine]
staining of Aβ plaques in hippocampus brain sections (100 nM, APP+/−/PS1+/− mice): abundant staining of Aβ plaques | staining of brain sections (WT mice): no staining
